Blank lines part the entries; values can stand above or below the compound they belong to.
What was measured:
[1] = tested on: murine melanoma (B16FO line); test: Quantitative study of tumoral fixation and biodistribution of the radiolabeled compound (ex-vivo gamma counting after IV injection); assay type: in vivo, C57B16 mice; details: for % Elimination/Al / Ratio (g)/Al TU/kidneys / Ratio (g)/Al Tu/Liver / Ratio (g)/Al Tu/Lungs / Ratio (g)/Al Tu/blood / Tumor (g/Al %) / Total Elimination (%/Al): IV; for tumoral uptake compared with the ligand alone (AP045): APAG22-1: at two hours post-IV
Experimental: C57B16 mice bearing xenografts of murine melanoma (B16FO line) obtained by subcutaneous injection of 300 000 cells suspended in 100 μl of RPMI culture medium are injected subcutaneously in the back. The experiment is performed when the tumors are palpable. i.e. about 10 days […]. All the experiments (tumoral graft, injection and imaging) are carried out under isoflurane/oxygen (2.5%/2.5%) gas anesthesia.
Injection of 50 to 100 microliters of the radiolabeled solution, with a maximum activity of 20 MBQ, by direct intravenous injection (caudal vein). The activity of the empty syringe after injection+compress is also measured for calculating the actual activity injected (actual Ac injected=Ac normalized full syringe—normalized activity (empty syringe and compress). Normalization consists in calculating the theoretical activity at one and the same time chosen as reference (for example the time of injection). The measurements are performed on a regularly calibrated activity meter for medical use (Medisystem©).
(§1) Scintigraphic imaging is carried out using a dedicated small animal micro-5 imager SPECT-CT (BIOSCAN™). A planar scintigraphic image is obtained immediately after injection to verify absence of intracaudal stasis. If there is stasis, the mouse will be sacrificed at late times (24 or 48 h). Static scintigraphic images may be recorded at 2 h, 4 h, 24 h and 48 h (Imager micro-SPECT-CT BIOSCAN©).
This is done ex-vivo by gamma counting of the various samples, using a gamma well counter for medical use, regularly calibrated for the isotopes used (Tc-99m and In-111). The animals are euthanized according to the protocols allowed by the animal ethics committee at 2 h, 4 h, 24 h or 48 h. The main organs are removed (brain, spleen, kidneys, lungs, heart, alimentary canal, liver) as well as a fragment of skin, muscle, bone and a blood sample and the whole tumor. Each sample is weighed and its gamma activity is counted in a sample-changing well counter for dedicated medical use, calibrated for the radioelements used. The animal's carcass is also weighed after removing the tail; these samples are incinerated and their gamma activity is also measured. The gamma activity of the samples containing all the collected urine and the feces is also measured. The activity of each sample is normalized (relative to the time of injection), and the ratio of the activity of each sample is calculated relative to the total activity injected (=the sum of all of the activities measured except that of the tail), expressed in % per gram of tissue, for calculating the ratio of the activity present in the tumor relative to the main organs (liver, kidneys, lungs and blood). The percentage of the activity eliminated is calculated.
The mean values of all of the data for all of the mice whose data are exploitable are calculated, as well as after eliminating the animals with urinary excretion that is too quick (>50% at 2 h or 75% at 4 h, as well as the mice with tumors >2 g, as the existence of necrosis may distort the calculation of the ratio of fixation in the tumor).
The biodistribution data of the various dendrimer compounds coupled to the IFC01102 ligand (also called amine R) and to a chelating agent are compared with those of the ligand alone coupled to the DOTA chelating agent (compound AP045) and radiolabeled with the same radioelement. 8.5 Results with Compound APAG9-1 (Radiolabeled with Tc99m) The radiochemical purity is above 95%, according to the chromatographic profile obtained as described above (example 5). 12 animals were injected. The average activity injected is 3.5±2.4 MBq. 2 animals were euthanized at 2 h, 4 at 24 h and 48 h post-injection. Examples of planar image immediately post-injection and 2 hours post-injection are illustrated in FIG. 3.

[2] = Lymphatic drainage after intradermal injection in the hind paws (sentinel lymph node characterization, scintigraphy/SPECT); assay type: in vivo, mouse
Experimental: as §1, with “performed” for “carried out”, “stasis.” for “stasis. If there is stasis, the mouse will be sacrificed at late times (24 or 48 h).”
Intradermal injection of 1 to 20 microliters of a suspension of radiolabeled dendrimers with a hypodermic syringe in the pad of the hindpaw of a nude mouse. A whole-body planar scintigraphic image of the mouse is obtained 5 minutes after injection to verify absence of passage of the compound through the blood. Acquisition of tomographic images (SPECT) every 30 minutes to monitor the lymphatic drainage of the compound and determine the time of disappearance of the signal in the popliteal lymph node. 9.3.a Injection of Compound X1 Labeled with Tc99m (Generation 2 Molecule)

[3] = 48 post-IV, Indium-111-radiolabeled, first series (all animals)
[4] = 48 post-IV, Indium-111-radiolabeled, second series (two mice with too quick urinary excretion eliminated)
[5] = 2 h post-iv, Indium-111-radiolabeled, first series (all animals)
[6] = 2 h post-iv, Indium-111-radiolabeled, second series (two mice with too quick urinary excretion eliminated)
[7] = 4 h post-IV, Indium-111-radiolabeled, first series (all animals)
[8] = 4 h post-IV, Indium-111-radiolabeled, second series (two mice with too quick urinary excretion eliminated)
[9] = 24 h post-IV, Indium-111-radiolabeled, first series (all animals)
[10] = 24 h post-IV, Indium-111-radiolabeled, second series (two mice with too quick urinary excretion eliminated)
[11] = 48 post-IV, Tc99m-radiolabeled, first series (all animals)
[12] = 48 post-IV, Tc99m-radiolabeled, second series (mice with too quick urinary secretion or too large tumor eliminated)
[13] = 2 h post-iv, Tc99m-radiolabeled, first series (all animals)
[14] = 2 h post-iv, Tc99m-radiolabeled, second series (mice with too quick urinary secretion or too large tumor eliminated)
[15] = 4 h post-IV, Tc99m-radiolabeled, first series (all animals)
[16] = 4 h post-IV, Tc99m-radiolabeled, second series (mice with too quick urinary secretion or too large tumor eliminated)
[17] = 24 h post-IV, Tc99m-radiolabeled, first series (all animals)
[18] = 24 h post-IV, Tc99m-radiolabeled, second series (mice with too quick urinary secretion or too large tumor eliminated)
[19] = 24 hours after intradermal injection at the two hind paws, Tc99m, 2.8 MBq

Compound: CCN(CC)CCNC(=O)c1cnc2cc(NC(=O)NCCOCCOCCNC(=O)CCOCCOCCOCCOCCNC(=O)CCN(CCC(=O)NCCOCCOCCOCCOCCC(=O)NCCOCCOCCNC(=O)Nc3ccc4nc(C(=O)NCCN(CC)CC)cnc4c3)Cc3cn(CCOCCOCCOCCOCCOCCOCCOCCNC(=O)CN4CCN(CC(=O)O)CCN(CC(=O)O)CCN(CC(=O)O)CC4)nn3)ccc2n1 [AP071]
% Elimination/Al [1, 3]: 8.5E+01%
Ratio (g)/Al TU/kidneys [1, 3]: 3.15E−01
Ratio (g)/Al Tu/Liver [1, 3]: 4.79E−01
Ratio (g)/Al Tu/Lungs [1, 3]: 2.85E+00
Ratio (g)/Al Tu/blood [1, 3]: 1.17E+01
Tumor (g/Al %) [1, 3]: 3.40E−01 g/Al %
% Elimination/Al [1, 4]: 8.5E+01%
Ratio (g)/Al TU/kidneys [1, 4]: 3.15E−01
Ratio (g)/Al Tu/Liver [1, 4]: 4.79E−01
Ratio (g)/Al Tu/Lungs [1, 4]: 2.86E+00
Ratio (g)/Al Tu/blood [1, 4]: 1.17E+01
Tumor (g/Al %) [1, 4]: 3.40E−01 g/Al %
% Elimination/Al [1, 5]: 6.0E+01%
Ratio (g)/Al TU/kidneys [1, 5]: 2.41E−02
Ratio (g)/Al Tu/Liver [1, 5]: 1.38E−01
Ratio (g)/Al Tu/Lungs [1, 5]: 2.43E−01
Ratio (g)/Al Tu/blood [1, 5]: 8.69E−01
Tumor (g/Al %) [1, 5]: 4.42E+00 g/Al %
% Elimination/Al [1, 6]: 5.1E+01%
Ratio (g)/Al TU/kidneys [1, 6]: 2.25E−01
Ratio (g)/Al Tu/Liver [1, 6]: 4.89E−01
Ratio (g)/Al Tu/Lungs [1, 6]: 9.54E−01
Ratio (g)/Al Tu/blood [1, 6]: 2.73E+00
Tumor (g/Al %) [1, 6]: 6.57E+00 g/Al %
tumoral uptake (in words) ([1]; 4 hours after IV injection, Indium-111): very high
% Elimination/Al [1, 7]: 7.3E+01%
Ratio (g)/Al TU/kidneys [1, 7]: 1.12E+00
Ratio (g)/Al Tu/Liver [1, 7]: 2.09E+00
Ratio (g)/Al Tu/Lungs [1, 7]: 6.20E+00
Ratio (g)/Al Tu/blood [1, 7]: 3.92E+01
Tumor (g/Al %) [1, 7]: 1.62E+01 g/Al %
% Elimination/Al [1, 8]: 6.9E+01%
Ratio (g)/Al TU/kidneys [1, 8]: 1.39E+00
Ratio (g)/Al Tu/Liver [1, 8]: 2.80E+00
Ratio (g)/Al Tu/Lungs [1, 8]: 8.36E+00
Ratio (g)/Al Tu/blood [1, 8]: 7.20E+01
Tumor (g/Al %) [1, 8]: 2.25E+01 g/Al %
% Elimination/Al [1, 9]: 8.5E+01%
Ratio (g)/Al TU/kidneys [1, 9]: 4.61E−01
Ratio (g)/Al Tu/Liver [1, 9]: 6.98E−01
Ratio (g)/Al Tu/Lungs [1, 9]: 2.88E+00
Ratio (g)/Al Tu/blood [1, 9]: 9.46E+00
Tumor (g/Al %) [1, 9]: 3.07E+00 g/Al %
% Elimination/Al [1, 10]: 8.5E+01%
Ratio (g)/Al TU/kidneys [1, 10]: 4.61E−01
Ratio (g)/Al Tu/Liver [1, 10]: 6.98E−01
Ratio (g)/Al Tu/Lungs [1, 10]: 2.88E+00
Ratio (g)/Al Tu/blood [1, 10]: 9.46E+00
Tumor (g/Al %) [1, 10]: 3.07E+00 g/Al %
tumoral uptake compared with the ligand alone (AP045) [1]: far higher

drainage in the entire lymphatic network as far as the lumbar-aortic stage ([2]; SPECT 3 h after intradermal injection, indium-111, 10 MBq): clearly visible
Compound: COCCOCCOCCOCCOc1cc(C(=O)NCCCCNC(=O)CN2CCN(CC(=O)O)CCN(CC(=O)O)CCN(CC(=O)O)CC2)cc(OCCOCCOCCOCCOC)c1OCCOCCOCCOCCOC [APAG4]

Compound: CCN(CC)CCNC(=O)c1cnc2cc(NC(=O)NCCOCCOCCNC(=O)CCOCCOCCOCCOCCOCCOCCOCCOCCOc3c(OCCOCCOCCOCCOC)cc(C(=O)NCCCNC(=O)C(CCCNC(=O)c4cccc(O)c4O)(CCCNC(=O)c4cccc(O)c4O)CCCNC(=O)c4cccc(O)c4O)cc3OCCOCCOCCOCCOC)ccc2n1 [APAG22-1]
Ratio (g)/Al TU/kidneys [1, 11]: 1.74E−02
Ratio (g)/Al Tu/Liver [1, 11]: 1.17E−01
Ratio (g)/Al Tu/Lungs [1, 11]: 2.22E+00
Ratio (g)/Al Tu/blood [1, 11]: 3.80E+00
Total Elimination (%/Al) [1, 11]: 7.36E+01 %/Al
Tumor (g/Al %) [1, 11]: 6.32E−01 g/Al %
Ratio (g)/Al TU/kidneys [1, 12]: 1.74E−02
Ratio (g)/Al Tu/Liver [1, 12]: 1.17E−01
Ratio (g)/Al Tu/Lungs [1, 12]: 2.22E+00
Ratio (g)/Al Tu/blood [1, 12]: 3.80E+00
Total Elimination (%/Al) [1, 12]: 7.32E+01 %/Al
Tumor (g/Al %) [1, 12]: 6.68E−01 g/Al %
Ratio (g)/Al TU/kidneys [1, 13]: 3.36E−01
Ratio (g)/Al Tu/Liver [1, 13]: 3.06E−01
Ratio (g)/Al Tu/Lungs [1, 13]: 5.44E−01
Ratio (g)/Al Tu/blood [1, 13]: 3.69E−01
Total Elimination (%/Al) [1, 13]: 2.59E+01 %/Al
Tumor (g/Al %) [1, 13]: 2.98E+00 g/Al %
Ratio (g)/Al TU/kidneys [1, 14]: 4.75E−01
Ratio (g)/Al Tu/Liver [1, 14]: 3.15E−01
Ratio (g)/Al Tu/Lungs [1, 14]: 4.17E−01
Ratio (g)/Al Tu/blood [1, 14]: 1.10E+00
Total Elimination (%/Al) [1, 14]: 1.46E+01 %/Al
Tumor (g/Al %) [1, 14]: 3.50E+00 g/Al %
Ratio (g)/Al TU/kidneys [1, 15]: 1.09E−01
Ratio (g)/Al Tu/Liver [1, 15]: 1.90E−01
Ratio (g)/Al Tu/Lungs [1, 15]: 9.45E−01
Ratio (g)/Al Tu/blood [1, 15]: 4.62E−01
Total Elimination (%/Al) [1, 15]: 3.58E+01 %/Al
Tumor (g/Al %) [1, 15]: 2.14E+00 g/Al %
Ratio (g)/Al TU/kidneys [1, 16]: 1.09E−01
Ratio (g)/Al Tu/Liver [1, 16]: 1.90E−01
Ratio (g)/Al Tu/Lungs [1, 16]: 9.45E−01
Ratio (g)/Al Tu/blood [1, 16]: 4.62E−01
Total Elimination (%/Al) [1, 16]: 3.58E+01 %/Al
Tumor (g/Al %) [1, 16]: 2.14E+00 g/Al %
Ratio (g)/Al TU/kidneys [1, 17]: 2.11E−02
Ratio (g)/Al Tu/Liver [1, 17]: 1.20E−01
Ratio (g)/Al Tu/Lungs [1, 17]: 2.26E+00
Ratio (g)/Al Tu/blood [1, 17]: 9.00E+00
Total Elimination (%/Al) [1, 17]: 6.45E+01 %/Al
Tumor (g/Al %) [1, 17]: 1.19E+00 g/Al %
Ratio (g)/Al TU/kidneys [1, 18]: 2.11E−02
Ratio (g)/Al Tu/Liver [1, 18]: 1.20E−01
Ratio (g)/Al Tu/Lungs [1, 18]: 2.26E+00
Ratio (g)/Al Tu/blood [1, 18]: 9.00E+00
Total Elimination (%/Al) [1, 18]: 5.45E+01 %/Al
Tumor (g/Al %) [1, 18]: 1.19E+00 g/Al %
tumoral uptake compared with the ligand alone (AP045) [1]: higher
time at which the maximum tumoral uptake is observed ([1]; after IV injection of the radiolabeled compound): 2 h
elimination compared with the ligand alone (AP045) ([1]; at 24 hours and 48 hours): far greater
Tumor to Liver ratio compared with the ligand alone (AP045) ([1]; mouse, in vivo): much higher

Compound: COCCOCCOCCOCCOc1cc(COc2cc(OCc3cc(OCCOCCOCCOCCOC)c(OCCOCCOCCOCCOC)c(OCCOCCOCCOCCOC)c3)cc(C(=O)NCCCNC(=O)C(CCCNC(=O)c3cccc(O)c3O)(CCCNC(=O)c3cccc(O)c3O)CCCNC(=O)c3cccc(O)c3O)c2)cc(OCCOCCOCCOCCOC)c1OCCOCCOCCOCCOC [X1]
hepatic activity [2, 19]: very low
level of urinary elimination [2, 19]: very high

— patent US20160221992A1, “DENDRITIC COMPOUNDS INCLUDING A CHELATING, FLUOROCHROME OR RECOGNITION AGENT, COMPOSITIONS INCLUDING SAME AND USES THEREOF” (UNIVERSITE DE STRASBOURG, priority 2013, published 2016)
